In BindingDB's records for doi:10.1021/acs.jmedchem.9b00966 (2019):

Assays:
[1] = Reversal of P-gp mediated multidrug resistance in human DU145-TxR cells overexpressing P-gp assessed as potentiation of paclitaxel-induced cytotoxicity by measuring paclitaxel IC50 at 5 uM after 48 hrs by MTT assay (Rvb = 2120 nM)
[2] = Reversal of P-gp mediated multidrug resistance in human DU145-TxR cells overexpressing P-gp assessed as potentiation of paclitaxel-induced cytotoxicity by measuring paclitaxel IC50 at 3 uM after 48 hrs by MTT assay (Rvb = 2120 nM)
[3] = Reversal of P-gp mediated multidrug resistance in human DU145-TxR cells overexpressing P-gp assessed as potentiation of paclitaxel-induced cytotoxicity by measuring paclitaxel IC50 at 10 uM after 48 hrs by MTT assay (Rvb = 2120 nM)
[4] = Reversal of P-gp mediated multidrug resistance in human DU145-TxR cells overexpressing P-gp assessed as potentiation of paclitaxel-induced cytotoxicity by measuring paclitaxel IC50 at 7 uM after 48 hrs by MTT assay (Rvb = 2120 nM)

SMILES | IC50 [1] | IC50 [2] | IC50 [3] | IC50 [4]
Cc1cc(C)c(-c2cc(NC(=O)CSCC(=O)Nc3ccc4ncsc4c3)n(-c3ccccc3)n2)cc1C | 5.7 nM | 172 nM | 0.78 nM | 2.9 nM
Cc1cc(C)c(-c2cc(NC(=O)CSc3n[nH]c(C4CC4)n3)n(-c3ccccc3)n2)cc1C | 194 nM | 629 nM | 21 nM | 59 nM
Cc1cc(C)c(-c2cc(NC(=O)CSCC(=O)N3c4ccccc4CCc4ccccc43)n(-c3ccccc3)n2)cc1C | 52 nM | 164 nM | 4 nM | 6 nM
Cc1cc(C)c(-c2cc(NC(=O)CSCC(=O)Nc3ccc4ccccc4c3)n(-c3ccccc3)n2)cc1C | 46 nM | 153 nM | 2 nM | 7 nM
Cc1cc(C)c(-c2cc(NC(=O)CSc3nnc4c(n3)[nH]c3ccccc34)n(-c3ccccc3)n2)cc1C | 21 nM | 426 nM | 17 nM | 17 nM
COc1cc(NC(=O)CSCC(=O)Nc2cc(-c3cc(C)c(C)cc3C)nn2-c2ccccc2)cc(OC)c1OC | 1.9 nM | 185 nM | 0.07 nM | 0.64 nM
Cc1cc(C)c(-c2cc(NC(=O)CSCC(=O)NC(c3ccccc3)c3ccccc3)n(-c3ccccc3)n2)cc1C | 56 nM | 160 nM | 11 nM | 16 nM
Cc1cc(C)c(-c2cc(NC(=O)CSCC(=O)NC34CC5CC(CC(C5)C3)C4)n(-c3ccccc3)n2)cc1C | 109 nM | 231 nM | 13 nM | 21 nM
Cc1cc(C)c(-c2cc(NC(=O)CSCC(=O)NCc3ccc(F)cc3)n(-c3ccccc3)n2)cc1C | 379 nM | 458 nM | 131 nM | 192 nM
Cc1cc(C)c(-c2cc(NC(=O)CSc3cccc(NC(=O)c4cncc(Br)c4)c3)n(-c3ccccc3)n2)cc1C | 20 nM | 56 nM | 6 nM | 9 nM
Cc1cc(C)c(-c2cc(NC(=O)CSCC(=O)c3ccc4c(c3)Cc3ccccc3-4)n(-c3ccccc3)n2)cc1C | 154 nM | 266 nM | 57 nM | 62 nM
